Measurements as given in patent EP0314154A2, “Tetrahydrofuro- and thieno(2,3-c)pyridines, their use as a medicament and process for their preparation” (BOEHRINGER INGELHEIM KG, priority 1987, dated 1989).

What was measured:
Rezeptorsubtyp M₁ = biological target: T1, Rezeptorsubtyp M₁ (Rattus norvegicus, UniProt P08482); experiment: Muscarinic receptor binding study, M₁ subtype, hippocampus, [³H]pirenzepine; conditions: Organ HIPPOCAMPUS, [³H]Ligand Pirenzepin, kind of constant not stated
T1 construct: HIPPOCAMPUS; from tissue; host or cells: hippocampus
T1 sequence (P08482 1-460): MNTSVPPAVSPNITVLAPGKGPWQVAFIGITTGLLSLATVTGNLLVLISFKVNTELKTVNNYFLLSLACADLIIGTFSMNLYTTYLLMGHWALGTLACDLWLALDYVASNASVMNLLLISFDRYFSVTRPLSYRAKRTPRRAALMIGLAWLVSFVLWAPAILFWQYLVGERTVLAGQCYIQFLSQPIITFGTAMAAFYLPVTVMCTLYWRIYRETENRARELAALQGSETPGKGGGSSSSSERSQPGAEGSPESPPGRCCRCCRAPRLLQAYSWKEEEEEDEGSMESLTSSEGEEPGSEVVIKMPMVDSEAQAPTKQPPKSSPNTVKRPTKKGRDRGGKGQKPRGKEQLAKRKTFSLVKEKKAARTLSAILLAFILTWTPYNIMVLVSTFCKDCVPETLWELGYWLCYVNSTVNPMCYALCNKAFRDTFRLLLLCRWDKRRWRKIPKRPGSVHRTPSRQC
Excerpt: (§1) Die Rezeptorbindungsstudien im muskarinisch cholinergen System wurden an den drei Rezeptorsubtypen gemäß den untenstehenden Literaturzitaten ausgeführt (Watson, M., H. I. Yamamura and W.R. Roeske 1983, Life Sci. 32, 3001-3011; Hammer, R., C.P. Berrie, N.I.M. Birdsall, A.S.V. Burgen and E.C. Hulme 1980, Nature 283, 90-92; Hammer, R., E. Giraldo, G.B. Schiavi, E. Monferini and H. Ladinsky 1986, Life Sci. 38, 1653-1662;).

Rezeptorsubtyp M₂ = biological target: T2, Rezeptorsubtyp M₂ (Rattus norvegicus, UniProt P10980); experiment: Muscarinic receptor binding study, M₂ subtype, heart, [³H]N-methylscopolamine; conditions: Organ Herz, [³H]Ligand N-Methylscopolamin, kind of constant not stated
T2 construct: Herz; from tissue; host or cells: heart
T2 sequence (P10980 1-466): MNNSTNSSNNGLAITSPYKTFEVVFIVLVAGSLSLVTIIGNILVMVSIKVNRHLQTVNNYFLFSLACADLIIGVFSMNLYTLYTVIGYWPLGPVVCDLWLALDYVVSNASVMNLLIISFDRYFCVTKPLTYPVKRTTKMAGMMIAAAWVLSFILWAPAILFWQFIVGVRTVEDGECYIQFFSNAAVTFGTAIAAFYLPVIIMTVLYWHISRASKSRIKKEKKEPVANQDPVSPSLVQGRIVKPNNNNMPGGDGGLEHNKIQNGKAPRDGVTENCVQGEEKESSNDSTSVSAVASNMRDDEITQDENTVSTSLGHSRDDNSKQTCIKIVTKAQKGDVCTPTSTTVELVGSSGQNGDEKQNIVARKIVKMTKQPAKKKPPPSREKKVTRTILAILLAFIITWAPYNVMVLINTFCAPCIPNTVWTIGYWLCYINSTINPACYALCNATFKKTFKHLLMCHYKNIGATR
Excerpt: as §1

Rezeptorsubtyp M₃ = biological target: T3, Rezeptorsubtyp M₃ (Rattus norvegicus, UniProt P08483); experiment: Muscarinic receptor binding study, M₃ subtype, lacrimal gland, [³H]N-methylscopolamine; conditions: Organ Tränendrüse, [³H]Ligand N-Methylscopolamin, kind of constant not stated
T3 construct: Tränendrüse; from tissue; host or cells: lacrimal gland
Excerpt: as §1

Agonisten Bindungsstelle = experiment: [³H]cis-methyldioxolane binding study (muscarinic agonist binding site); conditions: [³H]Ligand cis-Methyldioxolan
Excerpt: Die erfindungsgemäßen Verbindungen verdrängen den muscarinen Agonisten mit hoher Affinität von der Agonisten Bindungsstelle. Die Durchführung der [3H]cis-Methyldioxolan-Bindungsstudien erfolgen analog zu A Closs et al., Naunyn Schmiedebergs Arch. Pharmacol 335, 372-377 (1987). Die Ergebnisse sind in Tabelle Ia zusammengestellt Tabelle Ia: […]

[1] = EEG of the awake rabbit (arousal reaction); format: in vivo; conditions: waches Kaninchen
Excerpt: Die erfindungsgemäßen tertiären Amine der allgemeinen Formel I zeigen Affinitäten zu muscarinen Rezeptoren im ZNS und im Tierexperiment muscarine agonistische Eigenschaften im ZNS.

[2] = Haloperidol-induced dyskinesias in haloperidol-sensitised monkeys; format: in vivo; conditions: gegen Haloperidol sensibilisierte Affen; Dosis < 1 mg/kg i.m

T3 sequence (P08483 whole entry): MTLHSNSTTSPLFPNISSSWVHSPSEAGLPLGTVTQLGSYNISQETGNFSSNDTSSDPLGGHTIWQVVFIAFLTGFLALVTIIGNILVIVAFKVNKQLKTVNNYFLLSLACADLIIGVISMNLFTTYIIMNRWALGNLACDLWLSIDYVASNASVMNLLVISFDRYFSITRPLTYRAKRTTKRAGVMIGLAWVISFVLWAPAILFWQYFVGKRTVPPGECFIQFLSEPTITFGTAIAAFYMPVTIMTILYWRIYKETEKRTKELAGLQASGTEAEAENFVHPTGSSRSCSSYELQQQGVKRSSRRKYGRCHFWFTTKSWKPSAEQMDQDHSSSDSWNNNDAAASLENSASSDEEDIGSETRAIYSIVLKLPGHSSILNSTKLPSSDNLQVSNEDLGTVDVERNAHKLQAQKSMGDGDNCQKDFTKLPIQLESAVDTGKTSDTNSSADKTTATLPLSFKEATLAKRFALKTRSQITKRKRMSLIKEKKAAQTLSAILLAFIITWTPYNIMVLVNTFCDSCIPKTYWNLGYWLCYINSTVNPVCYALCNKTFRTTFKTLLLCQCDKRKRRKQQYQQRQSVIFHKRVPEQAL

Compound	Rezeptorbindung (Rezeptorsubtyp M₁)	Rezeptorbindung (Rezeptorsubtyp M₂)	Rezeptorbindung (Rezeptorsubtyp M₃)	Ki (Agonisten Bindungsstelle) [nM]	Arousal-Reaktion im EEG ([1]; 1 mg/kg i.v.)	Arousal-Reaktion im EEG ([1]; 3 mg/kg p.o.)	Dyskinesien zusammen mit unterschwelligen Dosen (Haloperidol) [2]	durch Haloperidol hervorgerufene Dyskinesien [2]
CCN1CCc2c(oc(C)c2C)C1 [X=O, R₁=CH₃, R₂=CH₃, R₃=H, R₄=Et, R₅=H]	3,2 µMol	3,2 µMol						
Cc1cc2c(o1)CN(C)CC2 [X=O, R₁=CH₃, R₂=H, R₃=H, R₄=CH₃, R₅=H, 2,6-Dimethyl-4,5,6,7-tetrahydrofuro[2,3-c]pyridin]	8,3 µMol	6,5 µMol	24,2 µMol	81	eine für Cholinomimetica typische Arousal-Reaktion	eine für Cholinomimetica typische Arousal-Reaktion		
CCc1cc2c(o1)CN(C)CC2 [X=O, R₁=Et, R₂=H, R₃=H, R₄=CH₃, R₅=H, 2-Ethyl-6-methyl-4,5,6,7-tetrahydro-furo[2,3-c]pyridin]	1,4 µMol	1,0 µMol		52				
CCCc1cc2c(o1)CN(C)CC2 [X=O, R₁=N-Pr, R₂=H, R₃=H, R₄=CH₃, R₅=H, 6-Methyl-2-n-propyl-4,5,6,7,-tetrahydro-furo[2.3-c]pyridin]				53				
CC(C)Cc1cc2c(o1)CN(C)CC2 [X=O, R₁=iso-Bu, R₂=H, R₃=H, R₄=CH₃, R₅=H, 6-Methyl-2-iso-butyl-4,5,6,7,-tetrahydro-furo[2.3-c]pyridin]	0,8 µMol	2,5 µMol	2,7 µMol					
CCCCc1cc2c(o1)CN(C)CC2 [X=O, R₁=n-Bu, R₂=H, R₃=H, R₄=CH₃, R₅=H, 6-Methyl-2-n-butyl-4,5,6,7,-tetrahydro-furo[2.3-c]pyridin]	0,5 µMol	0,7 µMol		39				
CCCc1cc2c(o1)CNCC2 [X=O, R₁=n-Pr, R₂=H, R₃=H, R₄=H, R₅=H]				160				
Cc1cc2c(s1)CN(C)CC2C (stereo not drawn) [X=S, R₁=CH₃, R₂=H, R₃=H, R₄=CH₃, R₅=CH₃, 2,4,6-Trimethyl-4,5,6,7-tetrahydrothieno[2,3-c]pyridin]	5,8 µMol	8,4 µMol	34,1 µMol					
Cc1cc2c(s1)CN(C)CC2 [X=S, R₁=CH₃, R₂=H, R₃=H, R₄=CH₃, R₅=H, 2,6-Dimethyl-4,5,6,7-tetrahydrothieno[2,3-c]pyridin]	7,5 µMol	14 µmol	53,1 µMol				lösen zusammen mit unterschwelligen Dosen Dyskinesien aus	verstärken
CCN1CCc2cc(C)sc2C1 [X=S, R₁=CH₃, R₂=H, R₃=H, R₄=Et, R₅=H, 6-Ethyl-2-methyl-4,5,6,7-tetrahydrothieno[2,3-c]pyridin]	2,2 µMol	4,5 µMol	11,4 µMol					
Cc1cc2c(s1)CNCC2 [X=S, R₁=CH₃, R₂=H, R₃=H, R₄=H, R₅=H, 2-Methyl-4,5,6,7,-tetrahydro-thieno[2,3-c]pyridin]	39,6 µMol	>100 µmol	>100 µmol					
CN1CCc2ccsc2C1 [X=S, R₁=H, R₂=H, R₃=H, R₄=CH₃, R₅=H, 6-Methyl-4,5,6,7,-tetrahydro-thieno[2,3-c]pyridin]	36,3 µMol	>100 µmol	>100 µmol					
